“And” between values parts separate entries of the source, which are not always exact repeats. Equal entries are not always repeated.
What was measured:
ERα = target: T1, ERα (Homo sapiens, UniProt P03372); assay: CRISPR VHL knock out, ERα imaging in MCF7 Cas9 cells; format: cell-based; conditions: MCF7 Cas9, 24 h
T1 construct: endogenous in cells; host or cells: MCF7 (also MCF7 engineered to express Cas9)
T1 sequence (P03372 1-595): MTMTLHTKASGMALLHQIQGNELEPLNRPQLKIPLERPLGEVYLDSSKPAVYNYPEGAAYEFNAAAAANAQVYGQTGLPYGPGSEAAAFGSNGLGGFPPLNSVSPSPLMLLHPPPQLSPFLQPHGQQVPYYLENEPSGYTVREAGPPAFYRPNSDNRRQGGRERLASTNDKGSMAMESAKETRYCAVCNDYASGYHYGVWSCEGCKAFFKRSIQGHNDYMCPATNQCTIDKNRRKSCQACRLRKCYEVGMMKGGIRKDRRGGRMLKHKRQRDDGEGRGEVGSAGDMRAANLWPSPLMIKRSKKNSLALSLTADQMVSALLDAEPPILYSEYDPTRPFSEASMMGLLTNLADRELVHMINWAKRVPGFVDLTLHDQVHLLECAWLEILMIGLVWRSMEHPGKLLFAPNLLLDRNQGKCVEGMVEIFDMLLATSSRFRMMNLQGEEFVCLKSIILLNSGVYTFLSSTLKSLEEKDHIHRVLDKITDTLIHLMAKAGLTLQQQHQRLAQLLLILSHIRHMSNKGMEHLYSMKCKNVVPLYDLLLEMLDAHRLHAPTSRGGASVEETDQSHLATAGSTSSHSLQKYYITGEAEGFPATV
Description: Chemically synthesised Edit-R crRNAs targeting VHL and ESR1 were purchased from Horizon Discovery (Cambridge, UK). Equal volumes of 4 crRNAs targeting each individual gene were pooled and then duplexed at a 1:1 ratio in 10 mM Tris pH7.4 buffer with tracrRNA (Horizon, U-002000-50) at room temperature. MCF7 cells were engineered to express cas9 under TetON promotor from the endogenous AAVS1 locus as described previously. Doxycycline-inducible Cas9 is linked via the cleavable T2A peptide to BFP enabling the identification of Cas9-positive cells by microscopy. MCF7 cas9 cells were cultured in RPMI phenol red free (Sigma) supplemented with 10% FBS and 1X GlutaMax (both Gibco). 72 h prior to reverse transfection, cas9 expression was induced by the addition 15 ng/mL doxycycline (Sigma) to the growth media.
MCF7 cells were reverse transfected with the crRNA:tracrRNA pools at 25 nM final concentration using Lipofectamine® RNAiMAX transfection reagent (Thermo Fisher): First crRNA:tracrRNA pools were dispensed into 384-well assay plates (Greiner, 781090), and incubated with 10 µL serum-free DMEM (Sigma) supplemented with 1% Lipofectamine RNAiMAX for 20 minutes at room temperature. […] Following image acquisition, analysis was completed using the Columbus Image Analysis platform (Perkin Elmer) to quantify ESR1 levels in cas9-positive cells. […]

ER-regulated genes = assay: Gene expression analysis of ER-regulated genes (qPCR), MCF7 and CAMA1 cells; format: cell-based; conditions: 100 nM, 0.1 nM estradiol, 24 hours
Description: MCF7 and CAMA1 cells were plated at 1.2 x 10^6 cells/well into 6-well TC-treated plates in phenol red-free RPMI containing 5% charcoal-stripped FBS (F6765, Sigma) and treated with 0.1 nM estradiol in the presence of 100 nM fulvestrant, 100 nM AZD9833, 100 nM AZ’6421 or DMSO control for 24 hours. A non-estradiol-treated control was also included with 3 biological replicates per condition. Samples were harvested in 1 mL of QIAzol Lysis Buffer and snap-frozen. RNA was extracted using the RNeasy 96 QIAcube HT total RNA Cell with DNAse treatment following manufacturer instructions. Samples were randomized over 96-well plates. RNA concentration was quantified using the Qubit RNA BR kit (# Q10213 Invitrogen) and RNA integrity was analyzed on a bioanalyzer using the RNA 6000 Nano Kit (# 5067-1511-Agilent) following the manufacturer’s instructions. Targeted gene expression was performed using a 48 × 48 or 96 × 96 Fluidigm dynamic array (Fluidigm, San Francisco CA, USA) and Taqman primers (Thermo Scientific, Waltham, MA). […] The Fluidigm Array was then primed and loaded on an IFC Controller and quantitative PCR (qPCR) experiments were run on the Biomark System, using the standard Default_10 min_HotStart protocol or M96_default protocol for 48 × 48 or 96 × 96 chips, respectively. Data were collected and analysed using the Fluidigm Real-Time PCR Analysis software to generate the Ct values. […]

uterus = assay: Immature female rat model, uterine weight and histology; format: in vivo; conditions: for Uterine weight normalised to body weight (% vehicle): individual animals, listed as AZ'6421
Text: Some endocrine therapies, such as tamoxifen, have been reported to display weak agonistic activity in the endometrium due to altered cofactor recruitment and subsequent activation of gene transcription. We therefore sought to test whether AZ’6421 was a complete antagonist or could act as a partial agonist, in both in vitro and in vivo models. […] Plasma samples were taken 4 hr after the 4th dose, at the same time as the uterus was weighed and sectioned for H&E staining. To further explore whether AZ’6421 may be acting as an agonist in vivo, morphological changes of the uterine were examined: uterine horns were formalin-fixed paraffin-embedded, stained with haematoxylin and eosin and then transverse sections of uterus examined.

With `Cc1ncsc1-c1ccc(CNC(=O)[C@@H]2C[C@@H](O)CN2C(=O)[C@@H](NC(=O)COCCCOCCCOc2cc(F)c([C@@H]3c4[nH]c5ccccc5c4C[C@@H](C)N3CC(C)(C)F)c(F)c2)C(C)(C)C)cc1` [Compound 5] the “effect of VHL knockout on ER degradation” value (ERα) was “partially reduced”, the “expression of ER-regulated genes” value (ER-regulated genes) was “effectively supressed the expression of a range of ER-regulated genes” and the “Uterine weight normalised to body weight (% vehicle)” value (uterus; 30 mg/kg BID) was 100.01% and 167.09% and 162.21% and 134.02% and 93.04%. For the same compound, the “Uterine weight normalised to body weight (% vehicle)” value (uterus; 100 mg/kg BID) was 147.05% and 110.41% and 107.36% and 113.51% and 133.84%, the uterine weight (uterus; 30 and 100 mg/kg, immature female rat, 4 days) was “trend of increased uterine weight” and the “uterine epithelium morphology (H&E)” value (uterus; immature female rat, 4 days dosing) was “tall columnar uterine epithelium”.
